Data on 19 compounds can be found in patent US20140309192A1, “MODULATORS OF THE G PROTEIN-COUPLED MAS RECEPTOR AND THE TREATMENT OF DISORDERS RELATED THERETO” (ARENA PHARMACEUTICALS, INC., priority 2011, published 2014).

The structures appear in SMILES notation.

The test has as its target T1, human Mas receptor (Homo sapiens, UniProt P04201).
T1 construct: expressed in transfected cells; host or cells: HEK293 (ATCC CRL-1573)
T1 sequence (P04201 1-325): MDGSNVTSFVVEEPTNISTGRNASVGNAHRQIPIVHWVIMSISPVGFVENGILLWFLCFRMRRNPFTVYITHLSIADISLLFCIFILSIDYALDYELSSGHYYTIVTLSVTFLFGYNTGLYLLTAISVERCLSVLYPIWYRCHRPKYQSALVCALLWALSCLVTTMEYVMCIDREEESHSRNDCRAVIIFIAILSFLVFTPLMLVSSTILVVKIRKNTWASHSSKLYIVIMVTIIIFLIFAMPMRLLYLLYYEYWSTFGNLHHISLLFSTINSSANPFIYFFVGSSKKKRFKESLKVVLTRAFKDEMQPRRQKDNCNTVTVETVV
The test can be described thus: HTRF IP1 assay, HEK293 cells expressing human Mas receptor. Format: cell-based. Particulars: HTRF IP1 assay, human Mas receptor (Table B.2); read-out: IC50. The text has this: Human and rat Mas receptors were either transiently or stably expressed in HEK293 cells. For transient transfections, human or rat Mas in pHM6 vector were transfected into HEK293 cells using Lipofectamine® (Invitrogen #18324-012). HEK293 cells transfected with empty pHM6 vector were used as a control. For generation of stable cell lines, cDNA expression plasmids encoding human or rat Mas genes and the neo^r gene were transfected into HEK293 cells (ATCC# CRL-1573) using Lipofectamine® (Invitrogen) according to the manufacturer's instructions. Stable receptor expressing pools were then generated over 3 weeks by standard techniques in the presence of 500 μg/mL Geneticin® (Gibco). Individual receptor stable pools were dilution cloned using standard techniques and clones were comparatively evaluated in inositol phosphate accumulation assays. Preferred clones were banked and cultured as needed. HEK293 cells were used as controls. The 384 well IP-One HTRF® Assay (Cisbio #62P1APEJ) was performed as described by the manufacturer's protocol. Cells were plated in at 100,000 cells per well in 15 μL DMEM (Gibco #11960) and incubated in a CO2 incubator at 37° C. for 2 h. Five μL of compounds diluted in 2× stimulation buffer plus 0.4% BSA (Sigma (#A3059) were added to each well and serial diluted IP1 standards (Cisbio #62IP1CDA) were also added to corresponding wells at this step. After the cells were incubated for 4 h in a CO2 incubator at 37° C., d2-labeled IP1 and cryptate-labeled anti-IP1 monoclonal antibody diluted in lysis buffer were added sequentially in 10 μL per well and the assay plates were kept in the dark at room temperature overnight. Ratiometric measurements of fluorescence emission at 665 nm and 620 nm were obtained using a Pherastar fluorometer (BMG Labtech). IP1 levels in each well were calculated according to the standard curves on each plate. IC50 values were obtained by fitting data to a nonlinear curve-fitting program (GraphPad Software, Inc., La Jolla Calif.).
By IC50 is commonly meant the concentration at which inhibition is half-maximal. Consider `O=C(Nc1ccc(Cl)cc1N1CCN(CCC(F)(F)F)CC1)c1ccc2c(c1)CNCC2` [Compound 13, N-(4-Chloro-2-(4-(3,3,3-trifluoropropyl)piperazin-1-yl)phenyl)-1,2,3,4-tetrahydroisoquinoline-7-carboxamide], for which the IC50 was 88.2 nM. For `CC(C)(C)CCN1CCc2ccc(C(=O)Nc3ccc(Cl)cc3N3CCN(CCC(F)(F)F)CC3)cc2C1` [Compound 17, N-(4-Chloro-2-(4-(3,3,3-trifluoropropyl)piperazin-1-yl)phenyl)-2-(3,3-dimethylbutyl)-1,2,3,4-tetrahydroisoquinoline-7-carboxamide], the half-maximal inhibitory concentration (IC50) is 386 nM. As for `NC(=O)CCN1CCc2ccc(C(=O)Nc3ccc(Cl)cc3N3CCN(CCC(F)(F)F)CC3)cc2C1` [Compound 20, 2-(3-Amino-3-oxopropyl)-N-(4-chloro-2-(4-(3,3,3-trifluoropropyl)piperazin-1-yl)phenyl)-1,2,3,4-tetrahydroisoquinoline-7-carboxamide], the figure is 610 nM; as for `NCc1ccc(C(=O)Nc2ccc(Cl)cc2N2CCN(CCC(F)(F)F)CC2)c(F)c1` [Compound 26, 4-(Aminomethyl)-N-(4-chloro-2-(4-(3,3,3-trifluoropropyl)piperazin-1-yl)phenyl)-2-fluorobenzamide], 87.3 nM. For the compound `NC(=O)[C@@H]1CCCN1Cc1ccc(C(=O)Nc2ccc(Cl)cc2N2CCN(CCC(F)(F)F)CC2)c(F)c1` [Compound 56, (S)-1-(4-(4-Chloro-2-(4-(3,3,3-trifluoropropyl)piperazin-1-yl)phenylcarbamoyl)-3-fluorobenzyl)pyrrolidine-2-carboxamide], the concentration for half-maximal inhibition (IC50) stood at 56.1 nM. On to `NC(=O)[C@H](CO)NCc1ccc(C(=O)Nc2ccc(Cl)cc2N2CCN(CCC(F)(F)F)CC2)c(F)c1` [Compound 76, (S)-4-((1-Amino-3-hydroxy-1-oxopropan-2-ylamino)methyl)-N-(4-chloro-2-(4-(3,3,3-trifluoropropyl)piperazin-1-yl)phenyl)-2-fluorobenzamide], for which the IC50 amounted to 68.2 nM. For `O=C1CN(Cc2ccc(C(=O)Nc3ccc(Cl)cc3N3CCN(CCC(F)(F)F)CC3)c(F)c2F)CCN1` [Compound 167, N-(4-Chloro-2-(4-(3,3,3-trifluoropropyl)piperazin-1-yl)phenyl)-2,3-difluoro-4-((3-oxopiperazin-1-yl)methyl)benzamide], the IC50 was determined as 35.3 nM.

`O=C(Nc1cc(Cl)c(Cl)cc1N1CCN(CCC(F)(F)F)CC1)c1ccc(CN2CCS(=O)(=O)CC2)c(F)c1F` [Compound 186, N-(4,5-Dichloro-2-(4-(3,3,3-trifluoropropyl)piperazin-1-yl)phenyl)-2,3-difluoro-4-((1,1-dioxo-thiomorpholin-4-yl)methyl)benzamide]: the 50% inhibitory concentration (IC50) stood at 49.1 nM.

In the case of `O=C(Nc1ccc(Cl)cc1N1CCN(CCC(F)(F)F)CC1)c1ccc(CNCc2nn[nH]n2)c(F)c1F` [Compound 200, 4-(((2H-Tetrazol-5-yl)methylamino)methyl)-N-(4-chloro-2-(4-(3,3,3-trifluoropropyl)piperazin-1-yl)phenyl)-2,3-difluorobenzamide], the IC50 amounted to 41.7 nM. In the case of `O=C(O)CNCc1ccc(C(=O)Nc2ccc(Cl)cc2N2CCN(CCC(F)(F)F)CC2)c(F)c1F` [Compound 202, 2-(4-(4-Chloro-2-(4-(3,3,3-trifluoropropyl)piperazin-1-yl)phenylcarbamoyl)-2,3-difluorobenzylamino)acetic acid], the IC50 came out at 92.1 nM. As to `O=C(O)CC1CNCCN1Cc1ccc(C(=O)Nc2ccc(Cl)cc2N2CCN(CCC(F)(F)F)CC2)c(F)c1F` (stereo not shown) [Compound 226, 2-(1-(4-(4-Chloro-2-(4-(3,3,3-trifluoropropyl)piperazin-1-yl)phenylcarbamoyl)-2,3-difluorobenzyl)piperazin-2-yl)acetic acid], the IC50 is 93.9 nM. `N#CCCNCc1ccc(C(=O)Nc2ccc(Cl)cc2N2CCN(CCC(F)(F)F)CC2)c(F)c1F` [Compound 235, N-(4-Chloro-2-(4-(3,3,3-trifluoropropyl)piperazin-1-yl)phenyl)-4-((2-cyanoethylamino)methyl)-2,3-difluorobenzamide]: the concentration for half-maximal inhibition (IC50) is 39.1 nM.

Turning to `NC(=O)[C@@H](COP(=O)(O)O)NCc1ccc(C(=O)Nc2ccc(Cl)cc2N2CCN(CCC(F)(F)F)CC2)c(F)c1F` [Compound 250, (R)-3-Amino-2-(4-(4-chloro-2-(4-(3,3,3-trifluoropropyl)piperazin-1-yl)phenylcarbamoyl)-2,3-difluorobenzylamino)-3-oxopropyl dihydrogenphosphate], the IC50 came out at 5.7 nM. Take `O=C(Nc1ccc(Cl)cc1N1CCN(CCC(F)(F)F)CC1)c1ccc2c(c1)CN(C(=O)c1cccnc1)CC2` [Compound 259, N-(4-Chloro-2-(4-(3,3,3-trifluoropropyl)piperazin-1-yl)phenyl)-2-nicotinoyl-1,2,3,4-tetrahydroisoquinoline-7-carboxamide]: the half-inhibitory concentration (IC50) worked out at 108 nM. With `NC1(C(=O)NCc2ccc(C(=O)Nc3ccc(Cl)cc3N3CCN(CCC(F)(F)F)CC3)c(F)c2F)CCSCC1` [Compound 284, 4-Amino-N-(4-(4-chloro-2-(4-(3,3,3-trifluoropropyl)piperazin-1-yl)phenylcarbamoyl)-2,3-difluorobenzyl)tetrahydro-2H-thiopyran-4-carboxamide], the 50% inhibitory concentration (IC50) was 57.2 nM. With `O=C(O)CCC(=O)NCc1ccc(C(=O)Nc2ccc(Cl)cc2N2CCN(CCC(F)(F)F)CC2)c(F)c1F` [Compound 293, 4-(4-(4-Chloro-2-(4-(3,3,3-trifluoropropyl)piperazin-1-yl)phenylcarbamoyl)-2,3-difluorobenzylamino)-4-oxobutanoic acid], the half-maximal inhibitory concentration (IC50) came to 103 nM. `O=C(Nc1ccc(Cl)cc1N1CCN(CCC(F)(F)F)CC1)c1ccc(CNC(=O)[C@H]2CC[C@@H](O)CC2)c(F)c1F` [Compound 330, N-(4-Chloro-2-(4-(3,3,3-trifluoropropyl)piperazin-1-yl)phenyl)-2,3-difluoro-4-(((1s,4s)-4-hydroxycyclohexanecarboxamido)methyl)benzamide]: the IC50 stood at 11.7 nM. As for `O=C(Nc1ccc(Cl)cc1N1CCN(CCC(F)(F)F)CC1)c1ccc(CNC(=O)[C@H]2CC[C@@H](OP(=O)(O)O)CC2)c(F)c1F` [Compound 392, (1s,4s)-4-(4-(4-Chloro-2-(4-(3,3,3-trifluoropropyl)piperazin-1-yl)phenylcarbamoyl)-2,3-difluorobenzylcarbamoyl)cyclohexyl dihydrogen phosphate], the figure is 6.13 nM; as for `O=C(Nc1ccc(Cl)cc1N1CCN(CCC(F)(F)F)CC1)c1ccc(CN2C(=O)CNC2=O)c(F)c1F` [Compound 428, N-(4-Chloro-2-(4-(3,3,3-trifluoropropyl)piperazin-1-yl)phenyl)-4-((2,5-dioxoimidazolidin-1-yl)methyl)-2,3-difluorobenzamide], 73.3 nM.
